Reference: ChEMBL document CHEMBL1201862, “PubChem BioAssay data set” (2004)
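Where inhibition never reached the appropriate level, the endpoint shown equals the highest concentration tested. Otherwise, values were interpolated linearly from a five-concentration, 48-hour dose response in 96-well plates. GI50: concentration for 50% inhibition of growth.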 The source made the active and inactive calls. Rule as the data show it: active = GI50 up to about 1.1 µM and inactive = higher.

Columns and labels:
Assay in all cases: DTP human tumour cell line panel, 48 h
SK-MEL-2 = system: SK-MEL-2
SF-268 = system: SF-268
SNB-75 = system: SNB-75
MDA-MB-435 = system: MDA-MB-435
HT-29 = system: HT-29
K562 = system: K562
SK-MEL-28 = system: SK-MEL-28
NCI-H460 = system: NCI-H460
SW-620 = system: SW-620
HCT-15 = system: HCT-15
HOP-62 = system: HOP-62
MDA-N = system: MDA-N
A549 = system: A549
NCI/ADR-RES = system: NCI/ADR-RES
SR = system: SR
SK-OV-3 = system: SK-OV-3
U-251 = system: U-251
SF-295 = system: SF-295
NCI-H226 = system: NCI-H226
LOX IMVI = system: LOX IMVI
M14 = system: M14
RXF 393 = system: RXF 393
MCF7 = system: MCF7
UO-31 = system: UO-31
HCC 2998 = system: HCC 2998
CAKI-1 = system: CAKI-1
DU-145 = system: DU-145
SK-MEL-5 = system: SK-MEL-5
OVCAR-8 = system: OVCAR-8
NCI-H23 = system: NCI-H23
A498 = system: A498
OVCAR-3 = system: OVCAR-3
Hs-578T = system: Hs-578T
HL-60 = system: HL-60
OVCAR-5 = system: OVCAR-5
ACHN = system: ACHN
OVCAR-4 = system: OVCAR-4
IGROV-1 = system: IGROV-1
HOP-92 = system: HOP-92
NCI-H522 = system: NCI-H522
COLO 205 = system: COLO 205
T47D = system: T47D
PC-3 = system: PC-3
SNB-19 = system: SNB-19
SF-539 = system: SF-539
SN12C = system: SN12C
CCRF-CEM = system: CCRF-CEM
Malme-3M = system: Malme-3M
KM12 = system: KM12
EKVX = system: EKVX
HCT-116 = system: HCT-116
TK-10 = system: TK-10
UACC-62 = system: UACC-62
MDA-MB-231 = system: MDA-MB-231
RPMI-8226 = system: RPMI-8226
786-0 = system: 786-0
MOLT-4 = system: MOLT-4
UACC-257 = system: UACC-257

Compound: Cc1ccc2oc3c(ccc(=O)n3C)c(=O)c2c1
- GI50 (SK-MEL-2): > 100 µM (inactive)
- GI50 (SF-268): > 100 µM (inactive)
- GI50 (SNB-75): > 100 µM (inactive)
- GI50 (MDA-MB-435): > 100 µM (inactive)
- GI50 (HT-29): > 100 µM (inactive)
- GI50 (K562): > 100 µM (inactive)
- GI50 (SK-MEL-28): > 100 µM (inactive)
- GI50 (NCI-H460): > 100 µM (inactive)
- GI50 (SW-620): > 100 µM (inactive)
- GI50 (HCT-15): > 100 µM
- GI50 (HOP-62): > 100 µM (inactive)
- GI50 (MDA-N): > 100 µM (inactive)
- GI50 (A549): > 100 µM (inactive)
- GI50 (NCI/ADR-RES): > 100 µM (inactive)
- GI50 (SR): > 100 µM (inactive)
- GI50 (SK-OV-3): > 100 µM (inactive)
- GI50 (U-251): > 100 µM (inactive)
- GI50 (SF-295): > 100 µM (inactive)
- GI50 (NCI-H226): > 100 µM (inactive)
- GI50 (LOX IMVI): > 100 µM (inactive)
- GI50 (M14): > 100 µM (inactive)
- GI50 (RXF 393): > 100 µM (inactive)
- GI50 (MCF7): > 100 µM (inactive)
- GI50 (UO-31): > 100 µM (inactive)
- GI50 (HCC 2998): > 100 µM (inactive)
- GI50 (CAKI-1): > 100 µM (inactive)
- GI50 (DU-145): > 100 µM (inactive)
- GI50 (SK-MEL-5): > 100 µM (inactive)
- GI50 (OVCAR-8): > 100 µM (inactive)
- GI50 (NCI-H23): > 100 µM (inactive)
- GI50 (A498): > 100 µM (inactive)
- GI50 (OVCAR-3): > 100 µM (inactive)
- GI50 (Hs-578T): > 100 µM (inactive)
- GI50 (HL-60): > 100 µM (inactive)
- GI50 (OVCAR-5): > 100 µM (inactive)
- GI50 (ACHN): > 100 µM (inactive)
- GI50 (OVCAR-4): > 100 µM (inactive)
- GI50 (IGROV-1): > 100 µM (inactive)
- GI50 (HOP-92): > 100 µM (inactive)
- GI50 (NCI-H522): > 100 µM (inactive)
- GI50 (COLO 205): > 100 µM (inactive)
- GI50 (T47D): > 100 µM (inactive)
- GI50 (PC-3): > 100 µM (inactive)
- GI50 (SNB-19): > 100 µM (inactive)
- GI50 (SF-539): > 100 µM (inactive)
- GI50 (SN12C): > 100 µM (inactive)
- GI50 (CCRF-CEM): > 100 µM (inactive)
- GI50 (Malme-3M): > 100 µM (inactive)
- GI50 (KM12): > 100 µM (inactive)
- GI50 (EKVX): 89.7 µM (inactive)
- GI50 (HCT-116): > 100 µM (inactive)
- GI50 (TK-10): > 100 µM (inactive)
- GI50 (UACC-62): > 100 µM (inactive)
- GI50 (MDA-MB-231): > 100 µM (inactive)

Compound: OCCN(CCO)c1nc(N2CCCCC2)c2nc(N(CCO)CCO)nc(N3CCCCC3)c2n1 [DIPYRIDAMOLE]
- GI50 (SK-MEL-2): 34.6 µM (inactive)
- GI50 (MDA-MB-435): 69.7 µM (inactive)
- GI50 (HT-29): 19.5 µM (inactive)
- GI50 (K562): 24.8 µM (inactive)
- GI50 (SK-MEL-28): 43 µM (inactive)
- GI50 (NCI-H460): 28 µM (inactive)
- GI50 (RPMI-8226): > 10 µM (inactive)
- GI50 (SW-620): 58.3 µM (inactive)
- GI50 (HCT-15): 31.4 µM
- GI50 (HOP-62): 29 µM (inactive)
- GI50 (MDA-N): 45.8 µM (inactive)
- GI50 (786-0): 31.9 µM (inactive)
- GI50 (A549): 38.5 µM (inactive)
- GI50 (NCI/ADR-RES): 22 µM (inactive)
- GI50 (SR): 3.46 µM (inactive)
- GI50 (NCI-H226): 48.9 µM (inactive)
- GI50 (LOX IMVI): 37 µM (inactive)
- GI50 (M14): 55.8 µM (inactive)
- GI50 (MCF7): > 10 µM (inactive)
- GI50 (UO-31): 33 µM (inactive)
- GI50 (HCC 2998): 16.3 µM (inactive)
- GI50 (CAKI-1): 45.5 µM (inactive)
- GI50 (DU-145): 48.8 µM (inactive)
- GI50 (SK-MEL-5): 21.6 µM (inactive)
- GI50 (OVCAR-8): 29.2 µM (inactive)
- GI50 (NCI-H23): 65.3 µM (inactive)
- GI50 (OVCAR-3): 12.4 µM (inactive)
- GI50 (Hs-578T): 31.8 µM (inactive)
- GI50 (HL-60): 15.7 µM (inactive)
- GI50 (OVCAR-5): 90.8 µM (inactive)
- GI50 (ACHN): 33.9 µM (inactive)
- GI50 (OVCAR-4): 59.4 µM (inactive)
- GI50 (IGROV-1): 66.7 µM (inactive)
- GI50 (HOP-92): 12.1 µM (inactive)
- GI50 (NCI-H522): 17.9 µM (inactive)
- GI50 (COLO 205): 41.9 µM (inactive)
- GI50 (MOLT-4): 24.4 µM (inactive)
- GI50 (T47D): 35.6 µM (inactive)
- GI50 (PC-3): 33.3 µM (inactive)
- GI50 (SN12C): 34 µM (inactive)
- GI50 (CCRF-CEM): 20 µM (inactive)
- GI50 (Malme-3M): 20.5 µM (inactive)
- GI50 (UACC-257): 39.3 µM (inactive)
- GI50 (KM12): 43 µM (inactive)
- GI50 (EKVX): 25.6 µM (inactive)
- GI50 (HCT-116): 40.3 µM (inactive)
- GI50 (TK-10): 17.1 µM (inactive)
- GI50 (MDA-MB-231): 43.3 µM (inactive)
